According to PubChem BioAssay (NCI):
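In this assay, cells in 96-well plates receive the compound at five concentrations for 48 hours. Endpoints are linearly interpolated between the surrounding concentrations. GI50 = concentration required for 50% inhibition of growth. TGI is the concentration that stops growth completely.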

Tests used:
Assay in all cases: growth of human tumour cells (NCI), 48 h
[1] = test system: CAKI-1 renal
[2] = test system: OVCAR-4 ovarian
[3] = test system: SK-MEL-28 melanoma
[4] = test system: KM12 colon
[5] = test system: NCI-H522 lung
[6] = test system: HCT-15 colon
[7] = test system: U251 CNS
[8] = test system: A498 renal
[9] = test system: SNB-75 CNS
[10] = test system: T-47D breast

Row | SMILES | TGI [1] [µM] | TGI [2] [µM] | TGI [3] [µM] | TGI [4] [µM] | TGI [5] [µM] | TGI [6] [µM] | TGI [7] [µM] | TGI [8] [µM] | TGI [9] [µM] | GI50 [1] [µM] | GI50 [2] [µM] | GI50 [3] [µM] | GI50 [4] [µM] | GI50 [5] [µM] | GI50 [6] [µM] | GI50 [7] [µM] | GI50 [9] [µM] | GI50 [10] [µM] | TGI [10] [µM] | GI50 [8] [µM]
1 | NC1=NN(c2ccccc2)C(=O)C1/C(=N\NC(=O)c1cc2ccccc2cc1O)C(=O)Nc1ccc(Cl)cc1 (stereo not given) | > 100 | > 100 | > 100 | > 100 | 83.4 | > 100 | > 100 | 98.1 | 54.8 | – | – | – | – | – | – | – | – | – | – | –
2 | CCOC(=O)Oc1ccc2[nH]c3c(C)cc(N)c(C)c3c2c1 | > 100 | > 100 | > 100 | > 100 | > 100 | > 100 | – | – | > 100 | – | – | – | – | – | – | – | – | – | – | –
3 | CC(C)=NO.CC(C)=NO.CC(C)=NO.CC(C)=NO.[Ti] | > 100 | > 100 | > 100 | > 100 | > 100 | > 100 | > 100 | – | > 100 | > 100 | > 100 | > 100 | > 100 | > 100 | > 100 | > 100 | > 100 | – | – | –
4 | Nc1ccc2ncc(Nc3ccc(Cl)c(Cl)c3)nc2c1 | 67.3 | > 100 | 84.1 | > 100 | 48.8 | > 100 | 80.1 | – | 59.4 | – | – | – | – | – | – | – | – | – | – | –
5 | O=C(Nc1ccccc1)Oc1ccccc1C1CCCCC1 | – | 37.3 | 58.1 | > 100 | – | 40.9 | 30.7 | > 100 | 39.9 | – | – | – | – | – | – | – | – | – | – | –
6 | Cn1nc(-c2ccccc2)c(C(=O)/C=C/c2ccccc2)c(N2CCCC2)c1=O | – | – | 32.8 | – | 23.7 | 72.5 | 26.4 | 26.9 | – | – | – | – | – | – | – | – | – | – | – | –
7 | CC1=CC(=O)N2[C@H](OC[C@@H]2C(C)C)O1 | > 100 | > 100 | > 100 | > 100 | > 100 | > 100 | > 100 | – | > 100 | – | – | – | – | – | – | – | – | – | – | –
8 | CN1OC(CO)CC12C1CC3CC(C1)CC2C3 (stereo not given) | > 100 | > 100 | > 100 | > 100 | > 100 | > 100 | > 100 | > 100 | > 100 | – | – | – | – | – | – | – | – | – | – | –
9 | O=C(/C=C/N1CCN(c2cccc(Cl)c2)CC1)c1ccc(Cl)cc1 | 71.1 | > 100 | 91.2 | 69.8 | 54.6 | > 100 | > 100 | 48.1 | – | 28.8 | > 100 | 39.9 | 27.1 | 18.9 | 31 | 42.1 | – | 51.2 | > 100 | 21.8
10 | COc1cc(-c2nn(-c3cccc(NC(=O)c4cccc(C(F)(F)F)c4)c3)cc2-c2ccncc2)ccc1Cl | > 50 | > 50 | > 50 | > 50 | 3.85 | > 50 | > 50 | 2.78 | – | 2.01 | 2.28 | 2.49 | 1.66 | 1.05 | 1.55 | 1.62 | – | 2.55 | > 50 | 0.687
